Test results reported in ChEMBL document CHEMBL3091429, “Structure-activity relationships of retro-dihydrochalcones isolated from Tacca sp” (J Nat Prod, 2013).
The source made the active and inactive calls. The calls are words filed in the database; no cut-off is given here.

How the values were obtained:
[1] = molecular target: Tubulin (Sus scrofa) (UniProt P02554+P02550); assay: Inhibition of purified porcine tubulin polymerization 100 uM by spectrophotometry; type: protein assay
[2] = test system: PC-3; assay: Antiproliferative activity against human PC3 cells by SRB assay; type: functional, cell-based
[3] = test system: HeLa; assay: Antiproliferative activity against human HeLa cells by SRB assay; type: functional, cell-based
[4] = test system: A549; assay: Antiproliferative activity against human A549 cells by SRB assay; type: functional, cell-based

Tubulin (Sus scrofa), sequence (P02550 whole entry, looked up): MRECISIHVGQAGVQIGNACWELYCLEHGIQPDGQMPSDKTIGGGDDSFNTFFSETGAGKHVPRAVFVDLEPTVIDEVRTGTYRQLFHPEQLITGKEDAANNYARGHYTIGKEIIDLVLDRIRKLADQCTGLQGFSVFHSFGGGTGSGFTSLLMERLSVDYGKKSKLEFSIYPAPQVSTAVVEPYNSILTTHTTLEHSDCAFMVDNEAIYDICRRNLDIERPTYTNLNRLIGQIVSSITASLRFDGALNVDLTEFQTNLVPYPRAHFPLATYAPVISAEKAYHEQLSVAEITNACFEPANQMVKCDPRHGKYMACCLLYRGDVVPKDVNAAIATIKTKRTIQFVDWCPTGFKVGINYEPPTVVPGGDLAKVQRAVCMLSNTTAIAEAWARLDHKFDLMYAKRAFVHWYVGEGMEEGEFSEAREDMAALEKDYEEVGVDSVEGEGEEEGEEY
Tubulin (Sus scrofa), sequence (P02554 whole entry, looked up): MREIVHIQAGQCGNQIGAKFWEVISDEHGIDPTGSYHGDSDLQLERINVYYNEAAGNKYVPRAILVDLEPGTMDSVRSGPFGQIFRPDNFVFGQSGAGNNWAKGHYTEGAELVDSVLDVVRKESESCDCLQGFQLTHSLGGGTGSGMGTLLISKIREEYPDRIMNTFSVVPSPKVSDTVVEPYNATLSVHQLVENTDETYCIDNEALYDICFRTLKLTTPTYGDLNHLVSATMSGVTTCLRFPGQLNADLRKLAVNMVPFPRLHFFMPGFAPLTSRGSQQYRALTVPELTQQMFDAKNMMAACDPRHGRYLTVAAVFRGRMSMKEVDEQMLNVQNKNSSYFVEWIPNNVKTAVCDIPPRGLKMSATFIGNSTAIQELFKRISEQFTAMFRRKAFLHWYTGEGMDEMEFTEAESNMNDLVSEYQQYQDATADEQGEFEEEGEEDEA

inhibition [1]	IC50 [2]	IC50 [3]	IC50 [4]	SMILES
inactive	–	–	–	COC1=CC(=O)C(CCC(=O)c2ccc(OC)c(OC)c2)=C(OC)C1=O
40%	5 µM	8.8 µM	8.3 µM	COC1=CC(=O)C(CCC(=O)c2ccc3c(c2)OCO3)=C(OC)C1=O

The next lines start with the compound.

SMILES	inhibition [1]	IC50 [2]	IC50 [3]	IC50 [4]
COc1cc(OC)c(CCC(=O)c2ccc(OC)c(O)c2)c(OC)c1	Active	–	–	–
COc1ccc(C(=O)CCc2c(OC)cc(OC)c(OC)c2OC)cc1OC	inactive	> 50 µM	> 50 µM	> 50 µM
COc1cc(OC)c(CCC(O)c2ccc3c(c2)OCO3)c(OC)c1 (configuration not stated)	Active	> 50 µM	> 50 µM	> 50 µM
COc1cc(O)c(CCC(=O)c2ccc(O)c(OC)c2)c(OC)c1	Active	> 50 µM	> 50 µM	> 50 µM
COc1cc(OC)c(CCC(=O)c2ccc(O)c(OC)c2)c(OC)c1	10%	> 50 µM	28.9 µM	40.3 µM
